Assays:
Assay type in all cases: biochemical
rhVAP-1 = rhVAP-1 (Homo sapiens (Human), UniProt Q16853); experiment: VAP-1 fluorometric assay (Amplex Red/HRP, benzylamine substrate); conditions: class symbols, ranges defined in μM
Procedure: The capability of compounds described herein to inhibit the enzymatic activity of vascular adhesion protein-1 (VAP-1) was determined by fluorometric assay. The assay procedure provided by R&D Systems was modified slightly for use as an inhibitor screening assay. The assay measured the H2O2 generated from the oxidative deamination of benzylamine by rhVAP-1 by converting Amplex® Red to the fluorescent product, resorufin, via horseradish peroxidase (HRP) and H2O2. Reaction buffer was 10 mM NaHCO3, pH 7.4. A standard curve was prepared by serially diluting H2O2 in reaction buffer. A 10 μM solution of resorufin was prepared in reaction buffer and was dispensed to 2 wells. These wells served as positive control for maximum fluorescence. Reaction buffer was added to the individual wells so that the final volume in each well was 100 μL. Amplex Red was diluted to 1 mM in reaction buffer. A 10 U stock of HRP was prepared in reaction buffer. A reaction cocktail was prepared by mixing equal parts 1 mM Amplex Red with 10 U HRP with 3 parts reaction buffers. The reaction cocktail was added to the appropriate wells, so that that final concentration in the well was 0.05 mM Amplex Red and 0.5 U HRP. A 200 μM solution of benzylamine was prepared in reaction buffer. Benzylamine was added to the appropriate wells so that the final concentration was 50 μM. Inhibitors were diluted in DMSO to 20× and distributed to the appropriate wells. LJP-1207 served a positive control. rhVAP-1 was purchased from R&D Systems. The concentration used for each lot was determined so that the activity was equal to the first lot. Two wells were left blank as controls. The plate was incubated for 30 minutes at 37° C., protected from light under foil. The plate was read at 530/35 emission and 590/35 excitation. Data processing was performed using Excel and Prism software.
The capability of compounds described herein to inhibit the enzymatic activity of vascular adhesion protein-1 (VAP-1) was determined by fluorometric assay. The assay procedure provided by R&D Systems was modified slightly for use as an inhibitor screening assay. The assay measured the H2O2 generated from the oxidative deamination of benzylamine by rhVAP-1 by converting Amplex® Red to the fluorescent product, resorufin, via horseradish peroxidase (HRP) and H2O2. Amplex Red, HRP, Benzylamine, inhibitors (with DMSO as vehicle, 0.5% v/v) and rhVAP-1 were added to the wells. Assay was conducted in 10 mM NaHCO3, pH 7.4. A standard curve was prepared by serially diluting H2O2 in reaction buffer. The plate was incubated for 30 minutes at 37° C., protected from light under foil. The plate was read at 530/35 emission and 590/35 excitation. Data processing was performed using Prism software.

rhMAO-B = rhMAO-B (Homo sapiens (Human), UniProt P27338); experiment: MAO-Glo assay, MAO-B inhibition
rhMAO-B, sequence (P27338 whole entry): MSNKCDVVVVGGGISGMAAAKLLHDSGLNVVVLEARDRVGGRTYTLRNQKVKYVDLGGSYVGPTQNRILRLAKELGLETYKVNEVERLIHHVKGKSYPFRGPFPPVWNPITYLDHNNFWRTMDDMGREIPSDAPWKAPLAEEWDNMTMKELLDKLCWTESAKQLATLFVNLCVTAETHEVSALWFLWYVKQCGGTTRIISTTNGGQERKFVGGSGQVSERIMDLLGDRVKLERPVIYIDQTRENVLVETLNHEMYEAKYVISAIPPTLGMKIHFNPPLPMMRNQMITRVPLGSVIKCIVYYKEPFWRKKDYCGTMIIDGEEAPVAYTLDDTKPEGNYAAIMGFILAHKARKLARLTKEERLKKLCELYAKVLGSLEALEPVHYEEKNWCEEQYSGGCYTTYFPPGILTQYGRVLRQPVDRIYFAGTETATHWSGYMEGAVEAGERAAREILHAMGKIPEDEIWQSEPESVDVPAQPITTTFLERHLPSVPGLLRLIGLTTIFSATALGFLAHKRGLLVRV
Procedure: (§1) The capability of compounds described herein to inhibit MAO was determined using a modified Promega MAO-Glo™ assay kit. The substrate ((4S)-4,5-dihydro-2-(6-hydroxybenzothiazolyl)-4-thiazolecarboxylic acid) was converted by MAO to produce methyl ester luciferin. The luciferin was then converted by luciferase to produce oxyluciferin and light. The light was measured using a luminescence setting on the plate reader. A standard curve was prepared by serially diluting luciferin in reaction buffer. The standard kit reaction buffer was used—100 mM HEPES (pH 7.5), 5% glycerol. The substrate was dispensed into the wells so that the final concentration for MAO-A inhibition assay would be 10 μM and MAO-B inhibition assay would be […]. Inhibitors were diluted in DMSO to 4× and distributed to the appropriate wells. Clorgyline and Deprenyl served as positive controls. rhMAO-A and rhMAO-B were purchased from Sigma. MAO-A or MAO-B was added to the appropriate wells. The plate was incubated for 1 hour, at room temperature with gentle shaking (90 rpm). The detection agent was added at equal volume (48 μL detection agent to 48 μL reaction). The plate was incubated for 20 minutes, at room temperature with gentle shaking (90 rpm). The plate luminescence was read. Data processing was performed using Prism software.
(§2) The capability of compounds described herein to inhibit MAO was determined using a modified Promega MAO-Glo™ assay. Test compounds, substrate and enzyme were incubated per manufacturer instructions for 1 hour, at room temperature with gentle shaking (90 rpm) before addition of detection agent. The detection agent was added at equal volume (48 μL detection agent to 48 μL reaction). The plate was incubated for 20 minutes, at room temperature with gentle shaking (90 rpm). The plate luminescence was read. Data processing was performed using Prism software.

rhMAO-A = rhMAO-A (Homo sapiens (Human), UniProt P21397); experiment: MAO-Glo assay, MAO-A inhibition
rhMAO-A, sequence (P21397 whole entry): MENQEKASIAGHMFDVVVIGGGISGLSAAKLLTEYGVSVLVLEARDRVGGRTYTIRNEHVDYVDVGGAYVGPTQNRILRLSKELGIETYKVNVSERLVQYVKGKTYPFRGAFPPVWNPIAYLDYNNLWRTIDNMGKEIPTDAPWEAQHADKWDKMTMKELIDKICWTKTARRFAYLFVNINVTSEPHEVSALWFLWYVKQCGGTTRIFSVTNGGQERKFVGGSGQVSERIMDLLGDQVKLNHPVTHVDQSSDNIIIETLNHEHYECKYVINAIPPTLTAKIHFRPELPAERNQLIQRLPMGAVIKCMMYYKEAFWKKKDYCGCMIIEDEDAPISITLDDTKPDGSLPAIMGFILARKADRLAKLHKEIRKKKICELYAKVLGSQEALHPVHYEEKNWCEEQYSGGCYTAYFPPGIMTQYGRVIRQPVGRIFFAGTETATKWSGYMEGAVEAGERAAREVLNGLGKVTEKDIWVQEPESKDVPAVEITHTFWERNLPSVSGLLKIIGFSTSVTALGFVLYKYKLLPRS
Procedure: as §1, §2

[1] = class symbols, ranges defined in μM

rhVAP-1, sequence (Q16853 whole entry): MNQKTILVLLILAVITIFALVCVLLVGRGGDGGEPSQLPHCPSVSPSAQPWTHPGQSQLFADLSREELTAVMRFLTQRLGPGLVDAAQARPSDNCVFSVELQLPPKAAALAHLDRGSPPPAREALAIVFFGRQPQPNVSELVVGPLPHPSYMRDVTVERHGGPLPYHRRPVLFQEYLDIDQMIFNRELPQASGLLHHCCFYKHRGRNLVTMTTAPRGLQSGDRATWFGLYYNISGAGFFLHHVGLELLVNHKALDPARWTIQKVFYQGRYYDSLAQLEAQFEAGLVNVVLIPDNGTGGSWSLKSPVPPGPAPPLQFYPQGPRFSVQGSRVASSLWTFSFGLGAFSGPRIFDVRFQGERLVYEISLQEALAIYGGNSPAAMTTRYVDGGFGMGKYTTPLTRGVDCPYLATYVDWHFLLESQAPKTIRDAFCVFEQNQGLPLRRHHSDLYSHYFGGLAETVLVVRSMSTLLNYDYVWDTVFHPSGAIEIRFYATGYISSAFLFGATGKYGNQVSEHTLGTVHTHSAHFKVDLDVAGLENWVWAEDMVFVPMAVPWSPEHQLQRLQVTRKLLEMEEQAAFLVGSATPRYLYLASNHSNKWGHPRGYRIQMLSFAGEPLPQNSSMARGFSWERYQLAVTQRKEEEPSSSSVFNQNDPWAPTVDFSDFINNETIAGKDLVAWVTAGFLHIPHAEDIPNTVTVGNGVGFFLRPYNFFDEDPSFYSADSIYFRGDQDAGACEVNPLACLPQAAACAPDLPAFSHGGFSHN

Row | Compound | IC50 (rhVAP-1) | IC50 (rhMAO-B; [1]) | IC50 (rhMAO-A; [1]) | IC50 (rhMAO-A; bound printed in cell) | IC50 (rhMAO-B; bound printed in cell)
1 | CCCCc1nc2ccc(C(=O)NC/C(=C/F)CN)cc2o1 [Example 40, (E)-N-(2-(aminomethyl)-3-fluoroallyl)-2-butylbenzo[d]oxazole-6-carboxamide 4-methylbenzenesulfonate] | 0.1 to 1 µM | 10 to 30 µM | 10 to 30 µM | – | –
2 | NC/C(=C\F)COc1ccc2nc(C3CCCC3)oc2c1 [Example 37, (E)-2-(((2-cyclopentylbenzo[d]oxazol-6-yl)oxy)methyl)-3-fluoroprop-2-en-1-amine 4-methylbenzenesulfonate] | < 0.1 µM | 0.1 to 1 µM | 1 to 10 µM | – | –
3 | CCCC(C)c1nc2ccc(OC/C(=C/F)CN)cc2o1 (stereo not drawn) [Example 43, (E)-3-fluoro-2-(((2-(pentan-2-yl)benzo[d]oxazol-6-yl)oxy)methyl)prop-2-en-1-amine 4-methylbenzenesulfonate] | < 0.1 µM | 0.1 to 1 µM | 10 to 30 µM | – | –
4 | CCCCc1nc2ccc(OC/C(=C/F)CN)cc2s1 [Example 3, (E)-2-(((2-butylbenzo[d]thiazol-6-yl)oxy)methyl)-3-fluoroprop-2-en-1-amine] | < 0.1 µM | < 0.1 µM | 1 to 10 µM | – | –
5 | CNC(=O)[C@@H](Cc1ccccc1)Nc1nc2ccc(OC/C(=C\F)CN)cc2o1 [Example 80, (R,Z)-2-((6-((2-(aminomethyl)-3-fluoroallyl)oxy)benzo[d]oxazol-2-yl)amino)-N-methyl-3-phenylpropanamide 4-methylbenzenesulfonate] | < 0.1 µM | – | – | > 40 µM | > 40 µM
6 | CCCNc1nc2ccc(OC/C(=C/F)CN)cc2s1 [Example 4, (E)-6-((2-(aminomethyl)-3-fluoroallyl)oxy)-N-propylbenzo[d]thiazol-2-amine] | < 0.1 µM | 0.1 to 1 µM | 10 to 30 µM | – | –
7 | NC/C(=C\F)COc1ccc2nc(NCc3ccccc3)oc2c1 [Example 21, (E)-6-((2-(aminomethyl)-3-fluoroallyl)oxy)-N-benzylbenzo[d]oxazol-2-amine 4-methylbenzenesulfonate] | < 0.1 µM | 0.1 to 1 µM | 10 to 30 µM | – | –
8 | COc1ccc(CNc2nc3ccc(OC/C(=C\F)CN)cc3o2)cn1 [Example 76, (Z)-6-((2-(aminomethyl)-3-fluoroallyl)oxy)-N-((6-methoxypyridin-3-yl)methyl)benzo[d]oxazol-2-amine 4-methylbenzenesulfonate] | < 0.1 µM | 1 to 10 µM | 1 to 10 µM | – | –
9 | CCCCc1nc2ccc(OC/C(=C/F)CN)c(C)c2o1 [Example 10, (E)-2-(((2-butyl-7-methylbenzo[d]oxazol-6-yl)oxy)methyl)-3-fluoroprop-2-en-1-amine] | 0.1 to 1 µM | < 0.1 µM | 1 to 10 µM | – | –
10 | CC(C)(C)CCCc1nc2ccc(OC/C(=C/F)CN)cc2o1 [Example 51, (E)-2-(((2-(4,4-dimethylpentyl)benzo[d]oxazol-6-yl)oxy)methyl)-3-fluoroprop-2-en-1-amine 4-methylbenzenesulfonate] | < 0.1 µM | 0.1 to 1 µM | 1 to 10 µM | – | –
11 | CCCCc1nc2ccc(OC/C(=C/F)CN)c(Br)c2s1 [Example 7, (E)-2-(((7-bromo-2-butylbenzo[d]thiazol-6-yl)oxy)methyl)-3-fluoroprop-2-en-1-amine] | < 0.1 µM | < 0.1 µM | < 0.1 µM | – | –
12 | CCCCc1nc2ccc(OC/C(=C/F)CN)cc2[nH]1 [Example 13, (E)-2-(((2-butyl-1H-benzo[d]imidazol-6-yl)oxy)methyl)-3-fluoroprop-2-en-1-amine 4-methylbenzenesulfonate] | < 0.1 µM | 1 to 10 µM | – | > 50 µM | –
13 | CCCCc1nc2ccc(OC/C(=C\F)CN)cc2n1C [Example 73, (Z)-2-(((2-Butyl-1-methyl-1H-benzo[d]imidazol-6-yl)oxy)methyl)-3-fluoroprop-2-en-1-amine 4-methylbenzenesulfonate] | < 0.1 µM | 1 to 10 µM | 1 to 10 µM | – | –
14 | NC/C(=C\F)COc1ccc2nc(NCc3cccnc3)oc2c1 [Example 26, (E)-6-((2-(aminomethyl)-3-fluoroallyl)oxy)-N-(pyridin-3-ylmethyl)benzo[d]oxazol-2-amine 4-methylbenzenesulfonate] | < 0.1 µM | 1 to 10 µM | 10 to 30 µM | – | –
15 | NC/C(=C/F)COc1ccc2nc(NCc3cccnc3)oc2c1 [Example 58, (Z)-6-((2-(aminomethyl)-3-fluoroallyl)oxy)-N-(pyridin-3-ylmethyl)benzo[d]oxazol-2-amine bis(4-methylbenzenesulfonate)] | 1 to 10 µM | 1 to 10 µM | – | > 50 µM | –
16 | NC/C(=C\F)COc1ccc2nc(C34CCC(CC3)CC4)oc2c1 [Example 34, (E)-2-(((2-(bicyclo[2.2.2]octan-1-yl)benzo[d]oxazol-6-yl)oxy)methyl)-3-fluoroprop-2-en-1-amine 4-methylbenzenesulfonate] | < 0.1 µM | 0.1 to 1 µM | 10 to 30 µM | – | –

Other lines, results leading:

Row | IC50 (rhVAP-1) | IC50 (rhMAO-B; [1]) | IC50 (rhMAO-A; [1]) | IC50 (rhMAO-A; bound printed in cell) | IC50 (rhMAO-B; bound printed in cell) | Compound
17 | < 0.1 µM | 0.1 to 1 µM | – | > 50 µM | – | NC/C(=C/F)COc1ccc2nc(NCc3ccncc3)oc2c1 [Example 94, (Z)-6-((2-(aminomethyl)-3-fluoroallyl)oxy)-N-(pyridin-4-ylmethyl)benzo[d]oxazol-2-amine 4-methylbenzenesulfonate]
18 | < 0.1 µM | < 0.1 µM | 1 to 10 µM | – | – | CCCCc1nc2c(F)cc(OC/C(=C/F)CN)cc2o1 [Example 82, (E)-2-(((2-butyl-4-fluorobenzo[d]-oxazol-6-yl)oxy)methyl)-3-fluoroprop-2-en-1-amine 4-methylbenzenesulfonate]
19 | 0.1 to 1 µM | < 0.1 µM | < 0.1 µM | – | – | C=C(CN)c1ccc2nc(CCCC)oc2c1 [Example 92, 2-(2-butylbenzo[d]oxazol-6-yl)prop-2-en-1-amine]
20 | < 0.1 µM | 1 to 10 µM | 1 to 10 µM | – | – | COCCCNc1nc2ccc(OC/C(=C\F)CN)cc2o1 [Example 81, (Z)-6-((2-(aminomethyl)-3-fluoroallyl)oxy)-N-(3-methoxypropyl)benzo[d]oxazol-2-amine 4-methylbenzenesulfonate]
21 | < 0.1 µM | 1 to 10 µM | 1 to 10 µM | – | – | NC/C(=C/F)COc1ccc2nc(NCCC(Cl)CCO)oc2c1 (stereo not drawn) [Example 93, (Z)-5-((6-((2-(aminomethyl)-3-fluoroallyl)oxy)benzo[d]oxazol-2-yl)amino)-3-chloropentan-1-ol 4-methylbenzenesulfonate]
22 | < 0.1 µM | 1 to 10 µM | 1 to 10 µM | – | – | NC/C(=C\F)COc1ccc2nc(NC3CCC(O)C3)oc2c1 (stereo not drawn) [Example 87, (E)-3-((6-((2-(aminomethyl)-3-fluoroallyl)oxy)benzo[d]oxazol-2-yl)amino)cyclopentan-1-ol 4-methylbenzenesulfonate]
23 | < 0.1 µM | 1 to 10 µM | 10 to 30 µM | – | – | NC/C(=C/F)COc1ccc2nc(NCc3ccc(C(F)(F)F)nc3)oc2c1 [Example 83, (Z)-6-((2-(aminomethyl)-3-fluoroallyl)oxy)-N-((6-(trifluoromethyl)pyridin-3-yl)methyl)benzo[d]oxazol-2-amine 4-methylbenzenesulfonate]
